# Measurements reported in US11013235B2 (priority 2015, dated 2021).
# Like-named read-outs stand apart in the source and are kept apart here.
# Experiments:
# Format in all cases: in vivo
# Botrytis cinerea [1] = experiment: Control of Botrytis cinerea disease in tobacco (Bc-Nt); conditions: 1 μM spraying every 24 hours for one week, water control 6.7
# How it was run: (§1)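 Treatment: spraying at 1 μM every 24 h for 1 week after pathogen inoculation, versus water. Scoring differed by pathogen: Botrytis by lesion diameter, Alternaria by fraction of leaves with symptoms, Nocardia by plant mortality.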
# Nocardia sp = experiment: Control of Nocardia sp disease in tobacco (N-Nt); conditions: 1 μM spraying every 24 hours for one week, water control 58
# How it was run: as §1
# Radopholus similis = experiment: Nematode control, nodules per plant: Radopholus similis; conditions: 1 μM foliar application every 5 days, evaluation 35 days after, control 45
# How it was run: (§2)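 Compounds in ethanol, diluted in water to 1 μM, sprayed on leaves only every 5 days. Ten plants per treatment; nodules per plant counted at 35 days.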
# Pratylenchus coffeae = experiment: Nematode control, nodules per plant: Pratylenchus coffeae; conditions: 1 μM foliar application every 5 days, evaluation 35 days after, control 42
# How it was run: as §2
# Meloidogyne incognita = experiment: Nematode control, nodules per plant: Meloidogyne incognita; conditions: 1 μM foliar application every 5 days, evaluation 35 days after, control 34
# How it was run: as §2
# Botrytis cinerea [2] = experiment: Control of Botrytis cinerea disease in Arabidopsis (Bc-At); conditions: 1 μM spraying every 24 hours for one week, water control 8.7
# How it was run: as §1
# Botrytis cinerea [3] = experiment: Control of Botrytis cinerea disease in tomato (Bc-SI); conditions: 1 μM spraying every 24 hours for one week, water control 7.4
# How it was run: as §1
# Phytophthora parasitica = experiment: Control of Phytophthora parasitica disease in tobacco (Pp-Nt); conditions: 1 μM spraying every 24 hours for one week, water control 91
# Rhizoctonia solani [4] = experiment: Control of Rhizoctonia solani disease in tomato (Rs-SI); conditions: 1 μM spraying every 24 hours for one week, water control 96
# Rhizoctonia solani [5] = experiment: Control of Rhizoctonia solani disease in tobacco (Rs-Nt); conditions: 1 μM spraying every 24 hours for one week, water control 87
# Alternaria solani = experiment: Control of Alternaria solani disease in tomato (As-SI); conditions: 1 μM spraying every 24 hours for one week, water control 68
# How it was run: as §1
# [6] = tested on: Candidatus 'Liberibacter asiaticus'; conditions: spraying every 15 days, 12 months after treatment, Citrus sinensis with HLB
Compound,Bc-Nt: mean of the diameter of the lesion (Botrytis cinerea [1]),N-Nt: percentage of mortality (Nocardia sp),Rs: number of nodules per plant (Radopholus similis),Pc: number of nodules per plant (Pratylenchus coffeae),Mi: number of nodules per plant (Meloidogyne incognita),Bc-At: mean of the diameter of the lesion (Botrytis cinerea [2]),Bc-SI: mean of the diameter of the lesion (Botrytis cinerea [3]),Pp-Nt: percentage of mortality (Phytophthora parasitica),Rs-SI: percentage of mortality (Rhizoctonia solani [4]),Rs-Nt: percentage of mortality (Rhizoctonia solani [5]),As-SI: percentage of leaves with the disease symptoms (Alternaria solani),Titers of the bacterium ([6]; 0.001 μM),Titers of the bacterium ([6]; 0.01 μM),Titers of the bacterium ([6]; 1 μM),Titers of the bacterium ([6]; 5 μM),Titers of the bacterium ([6]; 10 μM)
"O=C(CCc1cc2cc3c(-n4cccc4)coc3cc2oc1=O)NCC(O)CO (stereo not drawn) [IG, N-(2,3-dihydroxypropyl)-3-[2-oxo-6-(1H-pyrrol-1-yl)-2H-furo[3,2-g]chromen-3-yl]propanamide]",0.3 mm,0%,31,0,0,1.2 mm,0.8 mm,3%,1%,0%,7%,657 copies per reaction,11 copies per reaction,1 copies per reaction,65 copies per reaction,5423 copies per reaction
"CN1CCN(c2ncc(C(=O)N3CC4CC(O)C(O)CC4C3)cn2)CC1 (stereo not drawn) [IIIA, 2-{[2-(4-methylpiperazin-1-yl)pyrimidin-5-yl]carbonyl}-octahydro-1H-isoindole-5,6-diol]",1.5 mm,1%,11,16,2,2.4 mm,0.8 mm,1%,3%,2%,1%,432 copies per reaction,0 copies per reaction,0 copies per reaction,43 copies per reaction,2365 copies per reaction
"CC1CCN(C(=O)c2ccc(OC3CCN(CC(O)C(C)O)CC3)cc2)C1 (stereo not drawn) [IVB, 1-(4-{4-[(3-methylpyrrolidin-1-yl)carbonyl]phenoxy}piperidin-1-yl)butane-2,3-diol]",0.9 mm,0%,3,0,0,0.7 mm,1.2 mm,3%,1%,0%,7%,432 copies per reaction,8 copies per reaction,4 copies per reaction,43 copies per reaction,3574 copies per reaction
"Cc1nc(N2CCN(n3cccc3)CC2)ncc1C(=O)N1CC2CC(O)C(O)CC2C1 (stereo not drawn) [IIIL, 2-({4-methyl-2-[4-(1H-pyrrol-1-yl)piperazin-1-yl]pyrimidin-5-yl}carbonyl)-octahydro-1H-isoindole-5,6-diol]",1.5 mm,0%,0,0,0,1.5 mm,2.5 mm,0%,0%,0%,7%,524 copies per reaction,0 copies per reaction,6 copies per reaction,54 copies per reaction,5840 copies per reaction
"O=C(c1ccc(OC2CCN(CC(O)CO)CC2)cc1)N1CCCC1 (stereo not drawn) [IVI, 3-(4-{4-[(pyrrolidin-1-yl)carbonyl]phenoxy}piperidin-1-yl)propane-1,2-diol]",0.3 mm,0%,3,0,0,1.2 mm,0.8 mm,3%,1%,0%,7%,456 copies per reaction,4 copies per reaction,2 copies per reaction,56 copies per reaction,2547 copies per reaction
"O=C(Cc1cc2c(oc1=O)C=CC1C(C3CCCCC3)=COC21)NCC(O)CO (stereo not drawn) [IIC, 2-{5-cyclohexyl-11-oxo-3,10-dioxatricyclo[7.4.0.0^{2,6}]trideca-1(9),4,7,12-tetraen-12-yl}-N-(2,3-dihydroxypropyl)acetamide]",1.5 mm,2%,18,2,4,2.4 mm,0.8 mm,1%,2%,4%,3%,123 copies per reaction,25 copies per reaction,2 copies per reaction,23 copies per reaction,4562 copies per reaction
"CNC(=O)c1ccc2c(c1)N(C)C(CC(=O)NC(CO)CO)CO2 (stereo not drawn) [VB, 3-{[(1,3-dihydroxypropan-2-yl)carbamoyl]methyl}-N,4-dimethyl-3,4-dihydro-2H-1,4-benzoxazine-6-carboxamide]",0.9 mm,1%,0,1,0,0.7 mm,1.2 mm,0%,2%,0%,8%,598 copies per reaction,9 copies per reaction,2 copies per reaction,98 copies per reaction,9854 copies per reaction
"O=C(CC1COc2ccc(C(=O)NC3CCCCC3)cc2N1)NC(CO)CO (stereo not drawn) [VE, N-cyclohexyl-3-{[(1,3-dihydroxypropan-2-yl)carbamoyl]methyl}-3,4-dihydro-2H-1,4-benzoxazine-6-carboxamide]",0.9 mm,0%,3,0,0,0.5 mm,0.8 mm,3%,1%,0%,7%,587 copies per reaction,0 copies per reaction,0 copies per reaction,87 copies per reaction,4587 copies per reaction
"CNC(=O)c1ccc2c(c1)NC(CC(=O)NC(CO)CO)CO2 (stereo not drawn) [VA, 3-{[(1,3-dihydroxypropan-2-yl)carbamoyl]methyl}-N-methyl-3,4-dihydro-2H-1,4-benzoxazine-6-carboxamide]",1.5 mm,2%,1,2,4,2.4 mm,0.8 mm,1%,2%,4%,3%,524 copies per reaction,1 copies per reaction,5 copies per reaction,54 copies per reaction,5478 copies per reaction
